pIC50, pKi: −log10 of the molar value.
Target: T1, Low molecular weight protein-tyrosine phosphatase A (Mycobacterium tuberculosis, UniProt P9WIA1)
T1 sequence (P9WIA1 whole entry): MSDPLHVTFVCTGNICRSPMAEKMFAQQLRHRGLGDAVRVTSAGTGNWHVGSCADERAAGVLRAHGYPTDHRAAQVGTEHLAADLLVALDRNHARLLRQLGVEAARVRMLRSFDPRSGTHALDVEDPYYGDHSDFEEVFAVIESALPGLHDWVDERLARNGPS
Assay: Non-competitive inhibition of Mycobacterium tuberculosis PTPA using p-nitrophenyl phosphate as substrate by Lineweaver-Burk plot analysis

Structure (SMILES) | pIC50 | pKi
O=C(O)/C1=C/C#Cc2ccccc2C#CCCNC1=O | 3.96 | 4.65
O=C(O)C1CCCc2ccccc2CCCCNC1=O (racemic) | 3.63 | 3.99

Reference: ChEMBL document CHEMBL1781876, “Design, synthesis and inhibition activity of a novel cyclic enediyne amino acid conjugates against MPtpA” (Bioorg Med Chem, 2011)
